Consider three molecules from paper PMC8037650, “Biochemical Characterization of Recombinant UDPG-Dependent IAA Glucosyltransferase from Maize (Zea mays)” (International Journal of Molecular Sciences, 2021).

Assay [1] deals with T1, IAGlc synthase (Zea mays, UniProt Q41819).
T1 construct: gene IAGLU; recombinant, N-terminally His-tagged, expressed in E. coli
T1 sequence (Q41819 1-471): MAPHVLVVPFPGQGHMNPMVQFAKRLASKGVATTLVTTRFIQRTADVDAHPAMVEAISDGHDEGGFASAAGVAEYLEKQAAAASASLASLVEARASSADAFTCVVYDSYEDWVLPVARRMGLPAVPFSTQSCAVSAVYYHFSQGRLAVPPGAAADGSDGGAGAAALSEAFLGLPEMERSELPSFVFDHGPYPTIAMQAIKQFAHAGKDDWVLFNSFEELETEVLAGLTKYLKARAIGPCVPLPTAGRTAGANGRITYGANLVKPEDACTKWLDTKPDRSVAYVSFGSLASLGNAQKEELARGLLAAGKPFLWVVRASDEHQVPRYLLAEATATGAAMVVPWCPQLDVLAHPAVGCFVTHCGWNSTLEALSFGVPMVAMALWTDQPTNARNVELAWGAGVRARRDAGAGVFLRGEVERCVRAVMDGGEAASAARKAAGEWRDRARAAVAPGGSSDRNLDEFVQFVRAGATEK
The assay can be described thus: […]IAA glucosylation TLC radioassay, Dixon plot. Type of assay: biochemical.

Assay [2] deals with T1, IAGlc synthase. The assay can be described thus: coupled spectrophotometric assay, […] acceptor (relative activity). Type of assay: biochemical.

`O=C(O)COc1ccc(Cl)cc1Cl` [2,4-D, 2,4-dichlorophenoxyacetic acid] showed a Ki at IAGlc synthase [1] of 117 ± 10 µM.
On to `O=C(O)CCCc1c[nH]c2ccccc12` [IBA, indole-3-butyric acid], for which the “Relative Activity (%)” value at IAGlc synthase [2] is listed as 66%.
Regarding `O=C(O)CCc1c[nH]c2ccccc12` [IPA, indole-3-propionic acid], on IAGlc synthase [2], the “Relative Activity (%)” value is 49.7%.

For orientation: Ki means a measure of affinity in units of concentration, obtained from inhibition or displacement.
